# From patent US5321029A, “Xanthines” (Beecham-Wuelfing GmbH & Co.K.G., priority 1988, dated 1994)
# Target: c-AMP phosphodiesterase (erythrocytes)
# Assay: Inhibition of cyclic AMP phosphodiesterase (erythrocytes)
# Type: biochemical
# Details: phosphodiesterase extracted from erythrocytes, phosphate buffer pH 7.4, radiochemical procedure
# Description: The procedure used was that described by Arch, J. R. S. and Newsholme, E. A. in Biochem. J. 158, 603, (1976):
# Erythrocytes were obtained from Na-citrate (16 mM; 0.1 ml/ml blood) anticoagulated blood by repeated centrifugation with removal of the buff coat and washing with an isotonic buffer (composition in mM: NaCl […], KCl 4, CACl2.2 H2 O 1.8, Na2 HPO4.12 H2 O 0.8, NaH2 PO4 0.2, MgSO4.7 H2 O 0.7, Hepes 3.4; pH 7.4).
# The phosphodiesterase was extracted by mixing the erythrocytes with 4 volumes of 7 mM phosphate buffer, pH 7.4, followed by sonification (3×10 sec; 100 W) and then centrifuging for 30 min at 4200 x g.
# All supernatants were diluted in the extraction medium and assayed for phosphodiesterase activity within 6 hours of preparation, using the radiochemical procedure described in the above mentioned reference.
row,SMILES,Ki [nM]
1,"O=c1c2[nH]cnc2n(CC2CC2)c(=O)n1CC1CC1 [Example 1, 1,3-Di-cyclopropylmethyl xanthine]",5700
2,"O=c1c2[nH]cnc2n(CC2CCC2)c(=O)n1CC1CCC1 [Example 2, 1,3-Di-cyclobutylmethyl xanthine]",2200
3,"O=c1c2[nH]cnc2n(CC2CCCC2)c(=O)n1CC1CCCC1 [Example 3, 1,3-Di-cyclopentylmethyl xanthine]",3700
4,"O=c1c2[nH]cnc2n(CC2CCCCC2)c(=O)n1CC1CCCCC1 [Example 4, 1,3-Di-cyclohexylmethyl xanthine]",1700
5,"CC(=O)Cn1cnc2c1c(=O)n(CC1CC1)c(=O)n2CC1CC1 [Example 5, 1,3-Di-cyclopropylmethyl-7-(2-oxopropyl)-xanthine]",1400
6,"CC(=O)Cn1cnc2c1c(=O)n(CC1CCC1)c(=O)n2CC1CCC1 [Example 6, 1,3-Di-cyclobutylmethyl-7-(2-oxopropyl)-xanthine]",150
7,"CC(=O)Cn1cnc2c1c(=O)n(CC1CCCC1)c(=O)n2CC1CCCC1 [Example 7, 1,3-Di-cyclopentylmethyl-7-(2-oxopropyl)-xanthine]",1300
8,"CC(=O)Cn1cnc2c1c(=O)n(CC1CCCCC1)c(=O)n2CC1CCCCC1 [Example 8, 1,3-Di-cyclohexylmethyl-7-(2-oxopropyl)-xanthine]",2300
9,"CC(O)Cn1cnc2c1c(=O)n(CC1CCCC1)c(=O)n2CC1CCCC1 (stereo not drawn) [Example 9, 1,3-Di-cyclopentylmethyl-7-(2-hydroxypropyl)-xanthine]",26600
10,"O=c1c2[nH]cnc2n(C2CCCCC2)c(=O)n1C1CCCCC1 [Example 10, 1,3-Di-cyclohexyl xanthine]",800
11,"CC(=O)Cn1cnc2c1c(=O)n(C1CCCCC1)c(=O)n2C1CCCCC1 [Example 11, 1,3-Di-cyclohexyl-7-(2-oxopropyl)-xanthine]",2400

# The remaining lines, values ahead:
row,Ki [nM],SMILES
1,13500,"CC(O)Cn1cnc2c1c(=O)n(CC1CCC1)c(=O)n2CC1CCC1 (stereo not drawn) [Example 12, 1,3-Di-cyclobutylmethyl-7-(2-hydroxypropyl)-xanthine]"
2,1700,"O=c1c2[nH]cnc2n(C2CCC2)c(=O)n1C1CCC1 [Example 13, 1,3-Di-cyclobutyl-xanthine]"
3,5270,"CCCn1cnc2c1c(=O)n(CC1CC1)c(=O)n2CC1CC1 [Example 14, 1,3-Di-cyclopropylmethyl-7-n-propyl xanthine]"
4,2400,"CCCn1cnc2c1c(=O)n(CC1CCC1)c(=O)n2CC1CCC1 [Example 15, 1,3-Di-cyclobutylmethyl-7-n-propyl xanthine]"
5,2300,"O=c1c2c(ncn2CC2CC2)n(CC2CC2)c(=O)n1CC1CC1 [Example 16, 1,3,7-Tri-cyclopropylmethyl-xanthine]"
6,8400,"O=c1c2[nH]cnc2n(C2CCCC2)c(=O)n1CC1CC1 [Example 18, 1-(Cyclopropylmethyl)-3-cyclopentylxanthine]"
7,2300,"CC(=O)Cn1cnc2c1c(=O)n(CC1CC1)c(=O)n2CC1CCCCC1 [Example 19, 1-(Cyclopropylmethyl)-3-(cyclohexylmethyl)-7-(2-oxopropyl)xanthine]"
8,2000,"CC(=O)Cn1cnc2c1c(=O)n(CC1CC1)c(=O)n2C1CCCC1 [Example 20, 1-(Cyclopropylmethyl)-3-cyclopentyl-7-(2-oxopropyl)-xanthine]"
9,23000,"O=c1c2[nH]cnc2n(CC2CCCCC2)c(=O)n1CC1CC1 [Example 22, 1-(Cyclopropylmethyl)-3-(cyclohexylmethyl)xanthine]"

# Test system: hippocampal CA1 field neuronal damage
# Assay: Delayed neuronal death in gerbils after transient forebrain ischaemia
# Type: in vivo, gerbil
# Details: 5.0 mg/kg i.p.; conclusion in words
# Description: Ischaemia was produced in adult male gerbils by occlusion of both common carotid arteries for 3 minutes under halothane/nitrous oxide anaesthesia. During surgery the animals were placed upon a warming blanket. The ischaemia led to neuronal degeneration and to disturbed brain function.
# Brains were removed 2 weeks later and 12 μm thick coronal slices were examined light microscopically for neuronal degeneration.
# Three groups of animals were used:
# 2. solvent-treated ligated controls
# 3. compound-treated ligated animals
# The compound was administered 1 hour before the ligation period.
# Means±SEM (n) of histopathological score [HPS] which reflects the degree of neuronal damage in the hippocampal CA1 field: […]
row,SMILES,Prevention of ischaemia induced neuronal degeneration
1,"O=c1c2[nH]cnc2n(CC2CC2)c(=O)n1CC1CC1 [Example 1, 1,3-Di-cyclopropylmethyl xanthine]",significantly prevented ischaemia induced neuronal degeneration
